Experimental data as given in US20100056524A1, “Compound” (priority 2008, published 2010).
Structures can show the parent of a compound that is named as a salt. Where two headings read alike, the source gives them in different places.

Tests used:
Format in all cases: biochemical
RSK1 = biological target: T1, RSK1 (Homo sapiens, UniProt Q15418); test: RSK1 protein kinase assay; details: for remaining activity at 1 µM: 1 μM compound; for remaining activity at 10 µM: 10 μM compound; for residual kinase activity RSK1: 1 μm compound
T1 construct: All protein kinases were of human origin and encoded full length proteins, unless indicated otherwise; made in house
Description: (§1) All protein kinases were of human origin and encoded full length proteins, unless indicated otherwise. They were either expressed as glutathione S-transferase (GST) fusion proteins in Escherichia Coli or as hexahistidine (His6)-tagged proteins in insect Sf21 cells. GST fusion proteins were purified by affinity chromatography on glutathione-Sepharose, and His6-tagged proteins on nickel/nitriloacetate-agarose. The procedures for expressing some of the protein kinases used herein have been detailed previously.^8,9 The following sections outline the DNA vectors synthesised and the procedures used to express and purifying protein kinases that have not been reported previously.
(§2) All assays (25.5 μl) were carried out at room temperature (21° C.) and were linear with respect to time and enzyme concentration under the conditions used. Assays were performed for 30 min using Multidrop Micro reagent dispensers (Thermo Electron Corporation, Waltham, Mass. 02454, USA) in a 96-well format. The concentration of magnesium acetate in the assays was 10 mM and the [γ-33P] ATP (800 cpm/pmol) was used at 5, 20 or 50 μM as indicated, in order to be at or below the Km for ATP for each enzyme. Protein kinases assayed at 5 μM ATP were: —ERK1, ERK8, PKBα, MARK3, Aurora C. Protein kinases assayed at 20 μM ATP were: —JNK1, PDK1, CHK1, CHK2, CDK2 and Aurora B. Protein kinases assayed at 50 μM ATP were: —MNK2, IKKepsilon and TBK1.
(§3) The assays were initiated with MgATP, stopped by addition of 5 μl of 0.5 M orthophosphoric acid and spotted on to P81 filterplates using a unifilter harvester (PerkinElmer, Boston, Mass. 02118, USA). The IC50 values of inhibitors were determined after carrying out assays at 10 different concentrations of each compound.
(§4) Unless stated otherwise, enzymes were diluted in 50 mM Tris/HCl pH 7.5, 0.1 mM EGTA, 1 mg/ml BSA, 0.1% (v/v) 2-mercaptoethanol and assayed in 50 mM Tris/HCl pH 7.5, 0.1 mM EGTA, 0.1% (v/v) 2-mercaptoethanol.

Lck = biological target: T2, Lck (Homo sapiens, UniProt P06239); test: Lck protein kinase assay; details: for remaining activity at 1 µM: 1 μM compound; for remaining activity at 10 µM: 10 μM compound; for residual kinase activity Lck: 1 μm compound
T2 construct: All protein kinases were of human origin and encoded full length proteins, unless indicated otherwise; made in house
Description: as §1, §2, §3, §4

TBK1 = biological target: T3, TBK1 (Homo sapiens, UniProt Q9UHD2); test: TBK1 protein kinase assay ([γ-33P]ATP, P81 filterplates)
T3 construct: All protein kinases were of human origin and encoded full length proteins, unless indicated otherwise; His6; made in house; host or cells: insect Sf21 cells
T3 sequence (Q9UHD2 1-729): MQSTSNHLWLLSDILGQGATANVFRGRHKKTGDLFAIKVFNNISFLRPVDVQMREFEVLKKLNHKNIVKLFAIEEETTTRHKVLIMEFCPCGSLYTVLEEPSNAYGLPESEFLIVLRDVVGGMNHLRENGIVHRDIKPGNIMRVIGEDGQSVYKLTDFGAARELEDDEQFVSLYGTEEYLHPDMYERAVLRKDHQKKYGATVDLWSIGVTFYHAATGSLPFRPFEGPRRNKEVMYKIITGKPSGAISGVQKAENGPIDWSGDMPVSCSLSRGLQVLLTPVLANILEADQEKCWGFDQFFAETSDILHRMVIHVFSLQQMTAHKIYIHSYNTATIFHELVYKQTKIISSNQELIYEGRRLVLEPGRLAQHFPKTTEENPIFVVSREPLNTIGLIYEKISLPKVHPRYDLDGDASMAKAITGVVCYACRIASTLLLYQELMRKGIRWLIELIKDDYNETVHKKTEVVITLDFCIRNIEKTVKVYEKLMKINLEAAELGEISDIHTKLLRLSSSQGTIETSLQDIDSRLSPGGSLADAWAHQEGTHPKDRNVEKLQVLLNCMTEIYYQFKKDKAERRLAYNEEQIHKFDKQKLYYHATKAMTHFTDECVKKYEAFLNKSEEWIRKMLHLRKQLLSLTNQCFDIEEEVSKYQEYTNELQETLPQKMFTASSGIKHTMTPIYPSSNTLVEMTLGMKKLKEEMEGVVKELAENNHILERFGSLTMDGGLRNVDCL
How it was run: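 Human TBK1 assayed for 30 min with peptide substrate (300 μM), 50 μM [γ-33P]ATP and 10 mM magnesium acetate in 50 mM Tris/HCl pH 7.5, 0.1 mM EGTA, 0.1% 2-mercaptoethanol. Stopped with orthophosphoric acid and counted on P81 filters. IC50 from 10 compound concentrations.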

[1] = RSK1, read-out: residual kinase activity
[2] = Lck, read-out: residual kinase activity
[3] = 50 μM ATP, read-out: Potency (TBK1 IC50 potency score)
[4] = Table 2, 50 μM ATP, read-out: TBK1 IC50
[5] = read-out: residual kinase activity RSK1
[6] = read-out: residual kinase activity Lck

T2 sequence (P06239 whole entry): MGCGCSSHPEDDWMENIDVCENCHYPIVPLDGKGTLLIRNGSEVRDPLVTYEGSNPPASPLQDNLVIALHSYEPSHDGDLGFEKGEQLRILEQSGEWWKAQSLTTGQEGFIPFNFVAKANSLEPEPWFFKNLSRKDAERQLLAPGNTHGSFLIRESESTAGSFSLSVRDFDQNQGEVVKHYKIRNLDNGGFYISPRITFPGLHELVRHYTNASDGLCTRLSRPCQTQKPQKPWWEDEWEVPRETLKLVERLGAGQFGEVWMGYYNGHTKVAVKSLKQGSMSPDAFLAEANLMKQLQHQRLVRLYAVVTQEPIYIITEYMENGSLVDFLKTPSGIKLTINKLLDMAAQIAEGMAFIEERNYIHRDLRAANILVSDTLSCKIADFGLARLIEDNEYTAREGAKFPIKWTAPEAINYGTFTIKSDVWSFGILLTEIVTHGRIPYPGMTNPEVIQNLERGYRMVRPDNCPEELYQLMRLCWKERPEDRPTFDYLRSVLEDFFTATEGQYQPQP
T1 sequence (Q15418 whole entry): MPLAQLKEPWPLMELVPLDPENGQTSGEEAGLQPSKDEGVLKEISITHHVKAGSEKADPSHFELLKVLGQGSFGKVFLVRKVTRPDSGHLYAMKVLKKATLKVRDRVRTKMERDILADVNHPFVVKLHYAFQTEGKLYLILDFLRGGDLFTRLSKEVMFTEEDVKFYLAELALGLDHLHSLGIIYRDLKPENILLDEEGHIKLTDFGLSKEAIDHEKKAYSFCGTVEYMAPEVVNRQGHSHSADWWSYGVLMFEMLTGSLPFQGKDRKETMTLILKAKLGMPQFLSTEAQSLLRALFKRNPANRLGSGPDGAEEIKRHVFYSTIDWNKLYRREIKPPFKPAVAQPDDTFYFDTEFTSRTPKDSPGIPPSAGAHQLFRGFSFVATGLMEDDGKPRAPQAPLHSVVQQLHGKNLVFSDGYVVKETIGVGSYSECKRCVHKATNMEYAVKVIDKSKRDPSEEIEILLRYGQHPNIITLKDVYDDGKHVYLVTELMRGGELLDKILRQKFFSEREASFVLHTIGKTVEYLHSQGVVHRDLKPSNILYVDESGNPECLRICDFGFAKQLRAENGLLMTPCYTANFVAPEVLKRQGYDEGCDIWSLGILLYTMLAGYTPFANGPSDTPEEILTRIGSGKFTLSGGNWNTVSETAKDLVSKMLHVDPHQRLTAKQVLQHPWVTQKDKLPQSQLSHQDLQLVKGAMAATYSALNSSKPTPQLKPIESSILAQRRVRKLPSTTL

SMILES | remaining activity at 1 µM (RSK1; [1]) [%] | remaining activity at 10 µM (RSK1; [1]) [%] | remaining activity at 1 µM (Lck; [2]) [%] | remaining activity at 10 µM (Lck; [2]) [%] | IC50 (TBK1; [3]) [nM] | IC50 (TBK1; [4]) [nM] | IC50 (TBK1; read-out: TBK1 IC50) [nM] | remaining activity at 10 µM (RSK1; [5]) [%] | residual kinase activity RSK1 (RSK1) [%] | remaining activity at 10 µM (Lck; [6]) [%] | residual kinase activity Lck (Lck) [%] | IC50 (TBK1; Table 5, 50 μM ATP, read-out: TBK1 IC50) [nM] | fold more active against TBK1 than Compound B or Compound C (TBK1; from TBK1 IC50 values of Table 5) [fold]
O=C(NCCCNc1nc(Nc2cccc(N3CCCC3=O)c2)ncc1C1CC1)c1cccs1 [Example 47, Thiophene-2-carboxylic acid (3-{5-cyclopropyl-2-[3-(2-oxo-pyrrolidin-1-yl)-phenylamino]-pyrimidin-4-ylamino}-propyl)-amide. Hydrochloride salt] | 45 | 10 | 105 | 69 |  |  |  |  |  |  |  |  | 
O=C(NCCCNc1nc(Nc2cccnc2)ncc1C1CC1)c1cccs1 [Example 50, Thiophene-2-carboxylic acid {3-[5-cyclopropyl-2-(pyridin-3-ylamino)-pyrimidin-4-ylamino]-propyl}-amide] | 49 | 20 | 91 | 50 | 100 to 1000 | 108 |  |  |  |  |  |  | 
O=C(NCCCNc1nc(Nc2cccc(F)c2)ncc1Br)C1CCC1 [Compound A, cyclobutanecarboxylic acid {3-[5-bromo-2-(3-fluoro-phenylamino)-pyrimidin-4-ylamino]-propyl}-amide, reference compound] |  |  |  |  |  |  | 2 | 9 | 27 | 10 | 57 |  | 
O=C(NCCCNc1nc(Nc2cccc(F)c2)ncc1C1CC1)C1CCC1 [Example 23, Cyclobutanecarboxylic acid {3-[5-cyclopropyl-2-(3-fluoro-phenylamino)-pyrimidin-4-ylamino]-propyl}-amide] | 47 | 24 | 86 | 37 | < 100 | 4 | 4 | 24 | 47 | 37 | 86 | 4 | > 250
